Laboratory results published in US4828979A, “Nucleotide analogs for nucleic acid labeling and detection” (Life Technologies, Inc., priority 1984, dated 1989).
Like-named read-outs stand apart in the source and are kept apart here.

What was measured:
human β-globin gene = experiment: Detection of single-copy gene sequence in Southern blot of Eco RI digested human DNA; settings: NBT/BCIP dye system; probe 100 ng/ml, hybridization 16-24 hours
Experimental: A plasmid containing the 1.1 Kb Mst II fragment of the human β-globin gene in the Eco RI site of pBR322 (obtained from Dr. Y. W. Kan, UCSF) was nick translated with either Biotin-n-dATP in the presence of dTTP, dCTP, and dGTP, or Biotin-n-dCTP in the presence of dATP, dTTP, and dGTP. All nucleotides were at 20 μM and the reaction was allowed to proceed for 90 minutes. Conditions for nick translation of the DNA probe and purification of the biotin-labeled material are given in the manual of the BRL DNA Detection System.
The biotinylated probe was hybridizedto a Southern blot of Eco RI digested human DNA or to an Eco RI digest of the plasmid DNA. Probe concentration was 100 ng/ml and hybridization was allowed to proceed for 16-24 hours under conditions described by Leary et al. (Leary, J. J., Brigati, D. J. and Ward, D. C. (1983) Proc. Natl. Acad. Sci. USA 80 4045-4049). The filter was developed with the BRL Detection System as described in the system's instruction manual. The single copy β-globin gene Fragment at 5.2 Kb was observed within 3 hours of staining with the NBT/BCIP dye system for DNA probes labeled with Biotin-n-dATP where n=3, 7, 10 or 14 and Biotin-n-dCTP where n=7 or 10.

DNA polymerase I [1] = molecular target: T1, DNA polymerase I (Escherichia coli, UniProt P00582); experiment: Incorporation of dATP/dCTP and analogs into plasmid DNA by nick translation (3H-dGTP tracer); assay type: biochemical, E. coli; settings: 1.5 h, tracer 3H-dGTP incorporation relative to reaction mixture containing dNTP's and no derivatives, duplicate figures = two determinations
T1 construct: purchased BRL (Nick Translation System)
Experimental: Incorporation into Plasmid DNA of Biotinylated dATP Derivatives
The time course and levels of incorporation were studied as a function of linker size.
(§1) Using the BRL Nick Translation System, dATP and various derivatives were incorporated into plasmid DNA.
(§2) At each time point of interest, 2 μl from the reaction mixture was withdrawn, spotted on glass fiber filters (GF/C), washed in 10% trichloroacetic acid (TCA) once and 5% TCA twice, and dried after washing in alcohol. The filters were counted in a liquid scintillation counter.
The relative levels of incorporation of the modified nucleotides at the 90 minute time point are seen in Table 1 below, in which the data are reported as percent incorporation of the tracer radio-nucleotide (^3 H-dGTP) relative to incorporation resulting from a reaction mixture containing dNTP's and no derivatives. Duplicate figures indicate two determinations. Results for dCTP and analogs appear also.

[2] = tested on: streptavidin-biotin alkaline phosphatase system; experiment: Sensitivity of detection of probes biotinylated with various linker lengths, spotted on nitrocellulose
Experimental: (§3) The reaction volume was 1 ml. At 10 minutes, 30 minutes and 90 minutes, 200 μl of the reaction mixture was removed and the reaction quenched with 30 mM EDTA. The DNA from each sample was purified on a Sephade® G-50 column. […] In Table 2, "+" or "-" indicates the presence or absence, respectively of visible spots; it can be seen that a high degree of sensitivity exists even with a relatively low level of biotin incorporation.
Probes biotinylated with various linker lengths were then compared for sensitivity of detection. Plasmid DNA was nick translated according to the described protocol with Biotin-n-dATP, for n=7, 14, 3 or 10. The biotinylated DNA's were then purified from unincorporated nucleotides by gel filtration on Sephadex® G-50 in 1×SSC (0.15 M NaCl, 0.015 M sodium citrate) containing 0.1% SDS. The biotinylated DNA was diluted into 6×SSC containing 0.2 μg/μl sheared herring sperm DNA and spotted onto nitrocellulose paper in the range of 50 pg/5 μl to 1 pg/5 μl. After 30 minutes' incubation in the NBT/BCIP dye mixture of the BRL DNA Detection System, 2 pg spots of Bio-7, 14 or 10-dATP labeled probe and a 5 pg spot of Bio-3-dATP labeled probe were visible. After 1.5 hours, the 1 pg spot of each biotin-dATP-labeled probe was visible.

DNA polymerase I [3] = molecular target: T1, DNA polymerase I; experiment: Incorporation using radiolabelled biotin-nucleotide (32P-dCTP and 3H-biotin); assay type: biochemical, E. coli; settings: 20 μM [3H-biotin]-7-dATP; FIG. 6
Experimental: as §1, §2
Using the same protocol, incorporation was then performed using a radiolabelled biotin-nucleotide. Thus, the level of biotin incorporation was directly determined. 200 μl of the reaction mixture contained 10 μCi of α-^32 PdCTP and either 20 μM dATP or 20 μM [^3 H-biotin]-7-dATP. […] The lower curves show the time courses of incorporation of ^32 P-dCMP and the tritium labelled and biotinylated derivative of dAMP.

DNA polymerase I [4] = molecular target: T1, DNA polymerase I; experiment: Incorporation of various levels of Bio-7-dATP into plasmid DNA by nick translation; assay type: biochemical, E. coli
Experimental: as §1
To examine the detection sensitivity of probes made from the biotinylated nucleotides of the present invention, incorporation of various levels of Bio-7-dATP into plasmid DNA was carried out by nick translation as previously disclosed.
as §3

[5] = 90 min, 15° C., read-out: % Incorporation (90 min.)
[6] = after 30 minutes' incubation in NBT/BCIP dye mixture

T1 sequence (P00582 whole entry): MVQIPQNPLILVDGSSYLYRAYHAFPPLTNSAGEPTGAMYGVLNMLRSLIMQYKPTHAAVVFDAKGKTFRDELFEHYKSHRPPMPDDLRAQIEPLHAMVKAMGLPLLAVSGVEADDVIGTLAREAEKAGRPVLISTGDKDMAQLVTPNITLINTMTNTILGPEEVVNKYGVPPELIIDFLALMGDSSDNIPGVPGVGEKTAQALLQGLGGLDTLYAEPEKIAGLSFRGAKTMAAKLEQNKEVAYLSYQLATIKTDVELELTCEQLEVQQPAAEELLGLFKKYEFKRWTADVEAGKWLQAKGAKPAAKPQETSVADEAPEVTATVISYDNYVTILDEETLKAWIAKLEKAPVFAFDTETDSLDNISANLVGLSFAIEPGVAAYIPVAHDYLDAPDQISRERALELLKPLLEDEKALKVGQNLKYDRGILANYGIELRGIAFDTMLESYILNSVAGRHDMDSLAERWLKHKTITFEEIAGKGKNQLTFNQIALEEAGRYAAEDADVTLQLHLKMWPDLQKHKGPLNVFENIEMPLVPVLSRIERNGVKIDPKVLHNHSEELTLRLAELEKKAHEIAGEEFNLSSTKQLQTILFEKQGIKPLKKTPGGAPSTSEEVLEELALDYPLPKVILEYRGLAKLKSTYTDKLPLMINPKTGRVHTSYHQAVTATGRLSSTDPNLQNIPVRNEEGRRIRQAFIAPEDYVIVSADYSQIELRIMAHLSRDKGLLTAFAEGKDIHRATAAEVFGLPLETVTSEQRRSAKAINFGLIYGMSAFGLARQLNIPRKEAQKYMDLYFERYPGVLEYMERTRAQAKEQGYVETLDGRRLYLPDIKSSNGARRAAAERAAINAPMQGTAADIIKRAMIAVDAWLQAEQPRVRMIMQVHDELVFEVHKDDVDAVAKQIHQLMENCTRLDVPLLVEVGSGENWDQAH

Compound	time of staining within which single copy β-globin gene fragment at 5.2 Kb was observed (human β-globin gene) [h]	activity at 20 µM (DNA polymerase I [1]; [5]) [%]	spot of labeled probe visible (sensitivity) [2, 6] [pg]	further results
O=C(CCCC[C@@H]1SC[C@@H]2NC(=O)N[C@@H]21)NCCNc1ncnc2c1ncn2[C@H]1C[C@H](O)[C@@H](COP(=O)(O)OP(=O)(O)OP(=O)(O)O)O1 [Biotin-3-dATP]	≤ 3	29	5	
O=C(CCCC[C@@H]1SC[C@@H]2NC(=O)N[C@@H]21)NCCNc1ccn([C@H]2C[C@H](O)[C@@H](COP(=O)(O)OP(=O)(O)OP(=O)(O)O)O2)c(=O)n1 [Biotin-3-dCTP]		12		
O=C(CCCC[C@@H]1SC[C@@H]2NC(=O)N[C@@H]21)NCCCCCCNc1ncnc2c1ncn2[C@H]1C[C@H](O)[C@@H](COP(=O)(O)OP(=O)(O)OP(=O)(O)O)O1 [Biotin-7-dATP, N^6-(6-hexylamidobiotin)-2'-deoxyadenosine 5'-triphosphate]	≤ 3	53	2	
O=C(CCCC[C@@H]1SC[C@@H]2NC(=O)N[C@@H]21)NCCCCCCNc1ccn([C@H]2C[C@H](O)[C@@H](COP(=O)(O)OP(=O)(O)OP(=O)(O)O)O2)c(=O)n1 [Biotin-7-dCTP]	≤ 3	44		
O=C(CCCC[C@@H]1SC[C@@H]2NC(=O)N[C@@H]21)NCCCCCCNC(=O)CNc1ncnc2c1ncn2[C@H]1C[C@H](O)[C@@H](COP(=O)(O)OP(=O)(O)OP(=O)(O)O)O1 [Biotin-10'-dATP]		6.9		
O=C(CCCC[C@@H]1SC[C@@H]2NC(=O)N[C@@H]21)NCCCCCC(=O)NCCNc1ncnc2c1ncn2[C@H]1C[C@H](O)[C@@H](COP(=O)(O)OP(=O)(O)OP(=O)(O)O)O1 [Biotin-10-dATP]	≤ 3	15	2	
O=C(CCCC[C@@H]1SC[C@@H]2NC(=O)N[C@@H]21)NCCCCCC(=O)NCCNc1ccn([C@H]2C[C@H](O)[C@@H](COP(=O)(O)OP(=O)(O)OP(=O)(O)O)O2)c(=O)n1 [Biotin-10-dCTP]	≤ 3	22	2	spot of labeled probe visible (sensitivity) ([2]; after 1.5 hours in NBT/BCIP dye mixture): 1 pg
O=C(CCCCCNC(=O)CCCC[C@@H]1SC[C@@H]2NC(=O)N[C@@H]21)NCCCCCCNc1ncnc2c1ncn2[C@H]1C[C@H](O)[C@@H](COP(=O)(O)OP(=O)(O)OP(=O)(O)O)O1 [Biotin-14-dATP]	≤ 3	33	2	
O=C(CCCCCNC(=O)CCCC[C@@H]1SC[C@@H]2NC(=O)N[C@@H]21)NCCCCCCNc1ccn([C@H]2C[C@H](O)[C@@H](COP(=O)(O)OP(=O)(O)OP(=O)(O)O)O2)c(=O)n1 [Biotin-14-dCTP]		42		
O=C(CCCCCNC(=O)CCCC[C@@H]1SC[C@@H]2NC(=O)N[C@@H]21)NCCCCCCNC(=O)CNc1ncnc2c1ncn2[C@H]1C[C@H](O)[C@@H](COP(=O)(O)OP(=O)(O)OP(=O)(O)O)O1 [Biotin-17-dATP]		6.7		
NCCCCCCNc1ccn([C@H]2C[C@H](O)[C@@H](COP(=O)(O)OP(=O)(O)OP(=O)(O)O)O2)c(=O)n1 [N^4 --(6-aminohexyl)dCTP, N^4-(6-aminohexyl)dCTP]		74		
NCCCCCCNc1ncnc2c1ncn2[C@H]1C[C@H](O)[C@@H](COP(=O)(O)OP(=O)(O)OP(=O)(O)O)O1 [N^6 --aminohexyldATP, N^6-(6-aminohexyl)dATP]				activity at 20 µM (DNA polymerase I [1]; read-out: % Incorporation (90 min.), 90 min, 15° C.): 67%
O=C(CCCC[C@@H]1SC[C@@H]2NC(=O)N[C@@H]21)NCCCCCCNc1ncnc2c1ncn2[C@H]1C[C@H](O)[C@@H](COP(=O)(O)OP(=O)(O)OP(=O)(O)O)O1 [[^3 H-biotin]-7-dATP]				correspondence of time courses of incorporation of 32P-dCMP and the tritium labelled and biotinylated derivative of dAMP (DNA polymerase I [3]): close correspondence
Nc1ncnc2c1ncn2[C@H]1C[C@H](O)[C@@H](COP(=O)(O)OP(=O)(O)OP(=O)(O)O)O1 [dATP, reference compound]		100		
Nc1ccn([C@H]2C[C@H](O)[C@@H](COP(=O)(O)OP(=O)(O)OP(=O)(O)O)O2)c(=O)n1 [dCTP, reference compound]		100		
N^6 -(6-hexylamidobiotin-2'-deoxyadenosine 5'-monophosphate [Bio-7-dAMP]				Bio-7-dAMP per Kb (DNA polymerase I [4]; 10 min nick translation): 7 per Kb; Bio-7-dAMP per Kb (DNA polymerase I [4]; 30 min nick translation): 35 per Kb; Bio-7-dAMP per Kb (DNA polymerase I [4]; 90 min nick translation): 98 per Kb
